From patent US11014952B2, “Stable hydrolysis-resistant synthetic polyribosylribitolphosphate derivatives as vaccines against Haemophilus influenzae type b” (MAX-PLANCK-GESELLSCHAFT ZUR FÖRDERUNG DER WISSENSCHAFTEN …, priority 2016, dated 2021)

Experiments:
[1] = Stability in basic medium (0.1 M NaOH); type: physicochemical; conditions: for cleaved completely after: aqueous basic conditions as applied in Example H-1 (0.1 M NaOH)
Protocol: Stability study of the inventive saccharides is critical for the development of stable liquid Hib glycoconjugate vaccines. As a control we examined first the stability and cleavage of Hib polyribosylribitolphosphate capsular polysaccharide (CPS). Accordingly, Hib CPS was fragmented using standard procedures as described in Vaccine, 2000, 18, 1982-1993: 1 mg Hib CPS in 0.43 mL of 0.1 M NaOH, 20 h. Fragments obtained after purification (filtered through 30 kDa Amicon filters followed by desalting) were analyzed by ^1H NMR, HPLC and HRMS.
The stability of dimer 16 was further investigated under aqueous basic conditions as applied in Example H-1. From the HPLC chromatogram in FIG. 13D it was concluded that dimer 16 got cleaved completely after 4 days, while the natural Hib CPS got already cleaved completely within 20 hours.
The stability of tetramer 29 was further investigated under aqueous basic conditions as applied in Example H-1. From the HPLC chromatogram in FIG. 13A it was concluded that tetramer 29 got cleaved completely after 4 days, while the natural Hib CPS got already cleaved completely within 20 hours.

[2] = tested on: anti-Hib antibodies present in human reference serum; assay: Glycan array analysis with Hib human reference serum; type: binding; conditions: for inhibition of binding by natural Hib PRP: Hib PRP inhibitor present (FIG. 17A); for binding of anti-Hib antibodies to printed saccharide: no inhibitor (FIG. 17A)
Protocol: (§1) Saccharides in PBS were printed on N-Hydroxy succinimide activated glass slides (CodeLink slides, Surmodics) using an S3 microarray spotter (Scienion). Slides were incubated overnight in a humidity saturated chamber, quenched for 2 h with 100 mM ethanolamine, 50 mM sodium phosphate, pH 7.5, washed with water and dried.
(§2) For incubation, slides were blocked for 1 h with 3% (w/v) BSA-PBS, washed with PBS and water, and dried by centrifugation. A 64 well incubation grid was attached. Sera were diluted in 3% BSA-PBS, 0.1% (v/v) Tween-20, incubated at 37° C. for 15 min, and centrifuged for 2 min at 3220 rpm. Serum dilutions were applied to the slide and incubated for 1 h at room temperature. Wells were washed three times with PBS+0.1% Tween-20 (PBS-T). Secondary antibodies (anti-rabbit IgG FITC, anti-rabbit IgM AlexaFluor 647, anti-human IgG-Fc AlexaFluor 488 and IgM AlexaFluor 594) were incubated on the slides for 30 min at r.t. Wells were washed twice with PBS-T, the incubation grid was removed, and the slide washed with PBS and water. After drying by centrifugation, the slide was scanned using a GenePix 4300A (Molecular Devices) microarray reader.

[3] = tested on: antibodies raised by immunization with compound 94; assay: Glycan array: binding of printed saccharides to antibodies raised by immunization with compound 94; set-up: species or system rabbit; conditions: sera of rabbits immunized with conjugate 94 with and without Alhydrogel (FIG. 17C, D)
Protocol: Four groups with four rabbits per each group were immunized in a prime-boost regime with unadjuvanted conjugate 94 containing 5 μg saccharide 29 or conjugate 94 (containing 5 μg Hib saccharide 29) adjuvanted with Alhydrogel. The negative control group received PBS/Alhydrogel only. The positive control group received the approved vaccine ActHIB® (5 μg PRP, corresponding to half the human dose), a conjugate of native PRP to tetanus toxoid (TT). Preimmune serum and antiserum of bleeding day 21 (following two immunizations) were taken and analyzed on a glycan array. The ActHIB-specific serum was obtained after three administrations in contrast to two immunisations of the HIB analogues of the present invention.
as §1, §2
The primary immune response was assessed by glycan array screening of serum samples retrieved at day 0, day 21 and day 35. 2′-Methoxyribosylribitolphosphate dimer 19, 2′-methoxyribosylribitolphosphate dimer 24, 2′-Methoxyribosylribitolphosphate tetramer 29, 2′-deoxyribosylribitolphosphate tetramer 53 and 2′-dimethyl-aminocarbonylribosylribitolphosphate 62 as well as natural Hib PRP were printed on NHS ester-activated microarray slides. After immunization with conjugate 94 adjuvanted with Alhydrogel and without adjuvant, antibodies of the IgG and IgM subtypes against the Hib PRP derivatives 19, 24, 29, 53 and 62 as well as against the natural Hib PRP polysaccharide in all immunized rabbits were detected.

[4] = tested on: anti-Hib antibodies in rabbit typing serum; assay: Glycan array analysis with rabbit typing serum; type: binding; conditions: for inhibition of binding by natural Hib PRP: Hib PRP inhibitor present (FIG. 17B); for binding of anti-Hib antibodies to printed saccharide: no inhibitor (FIG. 17B)
Protocol: as §1, §2

[5] = Stability in presence of aluminum hydroxide (Alhydrogel), aluminum phosphate, phosphate buffer or water, HPLC; type: physicochemical; conditions: for cleavage to smallest fragments observed after: Alhydrogel
Protocol: Having established the stability data of the control Hib CPS, then the stability of Hib CPS in aluminum hydroxide was investigated, where it is known to be unstable in a vaccine formulation {0.5 mg Hib CPS, 3 mL Alhydrogel® (Brentag) and 22 mL milli-Q water} at various temperatures {37° C. (A1) and rt (A3)}. At 37° C. cleavage to smallest fragments were observed after 2 days and at rt this pattern was observed after day 7 (FIG. 6). From this experiment it was confirmed that, Hib CPS decomposes to 2 and 3-O phosphate fragments in 2 to 7 days depending on temperature in Aluminum hydroxide the most common adjuvant used in commercial vaccines.
Stability studies of synthesized 2′-methoxyribosylribitolphosphate dimer 16 were conducted in presence of various adjuvants. As a first step stability of 16 was studied using Al(OH)3, AlPO4 and water at various temperatures {37° C. (A1), 2-8° C. (A2), rt (A3) and 70° C. (A4)}.
The amount of Al(OH)3 and AlPO4 used for this study was similar to the amount present in commercial Hib vaccines. Compounds 16 and 8 were used as reference since decomposition of dimer 16 should lead to monomer 8. Every 24 h 40 μL of solution was aliquoted from each vial and centrifuged for 4 min at 5000 rpm. Supernatant (25 μL) was taken for HPLC analysis. […] From this study it was clear that 2′-methoxyribosylribitol dimer 16 was stable at 37° C. (A1), 2-8° C. (A2), r.t. (A3) and at 70° C.
Stability studies of synthesized 2′-methoxyribosylribitolphosphate tetramer bearing a linker 29 were conducted in presence of various adjuvants. As a first step stability of 29 was studied using Al(OH)3, phosphate buffer (PBS) and water at various temperatures {2-8° C. (A2), and r.t. (A3)}.
The amount of Al(OH)3 used for this study was similar to the amount present in commercial Hib vaccines. Compounds 29, 16 and 8 were used as reference since decomposition of tetramer 29 should lead to dimer 16 and monomer 8. Every 24 h 40 μL of solution was aliquoted from each vial and centrifuged for 4 min at 5000 rpm. Supernatant (25 μL) was taken for HPLC analysis. […] From this study it was clear that 2′-methoxyribosylribitolphosphate tetramer 29 is stable in presence of Al(OH)3, in phosphate buffer (PBS) and in water at 2-8° C. (A2) and r.t. (A3).

2′-Methoxyribosylribitolphosphate tetramer [Compound 29]
cleaved completely after ([1]; HPLC): 4 days | inhibition of binding by natural Hib PRP [2]: inhibits the binding | binding of anti-Hib antibodies to printed saccharide [2]: bind | antibodies of the IgG and IgM subtypes against the saccharide after immunization with conjugate 94 [3]: detected | inhibition of binding by natural Hib PRP [4]: inhibits the binding | binding of anti-Hib antibodies to printed saccharide [4]: bind | stability ([5]; Al(OH)3, phosphate buffer (PBS) and water, 2-8° C. (A2)): stable | decomposition after 7 days (HPLC) ([5]; Al(OH)3, phosphate buffer (PBS) and water, 2-8° C. and r.t.): no decomposition was observed | stability ([5]; Al(OH)3, phosphate buffer (PBS) and water, r.t. (A3)): stable

2′-deoxyribosylribitolphosphate tetramer [Compound 53]
inhibition of binding by natural Hib PRP [2]: not | binding of anti-Hib antibodies to printed saccharide [2]: bind | antibodies of the IgG and IgM subtypes against the saccharide after immunization with conjugate 94 [3]: detected | inhibition of binding by natural Hib PRP [4]: not | binding of anti-Hib antibodies to printed saccharide [4]: bind

COC1C(O)[C@@H](CO)O[C@H]1OCC(O)C(O)C(O)COP(=O)(O)OC1C(OC)[C@H](OCC(O)C(O)C(O)CO)O[C@@H]1CO (stereo partly drawn) [Compound 16, 2′-methoxyribosylribitolphosphate dimer]
cleaved completely after ([1]; HPLC): 4 days | stability ([5]; Al(OH)3, AlPO4 and water, 2-8° C. (A2), 7 days): stable | stability ([5]; Al(OH)3, AlPO4 and water, 37° C. (A1), 7 days): stable | decomposition after 7 days (HPLC) ([5]; Al(OH)3, AlPO4 and water, 37° C., 2-8° C., rt and 70° C.): no decomposition was observed | stability ([5]; Al(OH)3, AlPO4 and water, 70° C., 7 days): stable | stability ([5]; Al(OH)3, AlPO4 and water, r.t. (A3), 7 days): stable

COC1C(O)[C@@H](CO)O[C@H]1OCC(O)C(O)C(O)COP(=O)(O)OC1C(OC)[C@H](OCC(O)C(O)C(O)COP(=O)(O)OCCCCCN)O[C@@H]1CO (stereo partly drawn) [Compound 19, 2′-Methoxyribosylribitolphosphate dimer]
inhibition of binding by natural Hib PRP [2]: inhibits the binding | binding of anti-Hib antibodies to printed saccharide [2]: bind | antibodies of the IgG and IgM subtypes against the saccharide after immunization with conjugate 94 [3]: detected | inhibition of binding by natural Hib PRP [4]: inhibits the binding | binding of anti-Hib antibodies to printed saccharide [4]: bind

COC1C(OP(=O)(O)OCCCCCN)[C@@H](CO)O[C@H]1OCC(O)C(O)C(O)COP(=O)(OCc1ccccc1)OC1C(OC)[C@H](OCC(O)C(O)C(O)CO)O[C@@H]1CO (stereo partly drawn) [Compound 24, 2′-methoxyribosylribitolphosphate dimer]
inhibition of binding by natural Hib PRP [2]: inhibits the binding | binding of anti-Hib antibodies to printed saccharide [2]: bind | antibodies of the IgG and IgM subtypes against the saccharide after immunization with conjugate 94 [3]: detected | inhibition of binding by natural Hib PRP [4]: inhibits the binding | binding of anti-Hib antibodies to printed saccharide [4]: bind

Hib polyribosylribitolphosphate capsular polysaccharide [Hib CPS, reference compound]
cleavage products in basic medium ([1]; 0.1 M NaOH, 20 h, 1H NMR, HPLC, HRMS): cleaved to its smallest 2 and 3-0 phosphate fragments | time to complete hydrolysis / cleavage under basic conditions ([1]; 0.1 M sodium hydroxide solution): ≤ 20 h | stability in basic aqueous media or in the presence of aluminum salts ([1]; basic aqueous media, suspensions with aluminum phosphate or aluminum hydroxide): hydrolyzes within one day | antibodies of the IgG and IgM subtypes against the saccharide after immunization with conjugate 94 [3]: detected | cleavage to smallest fragments observed after ([5]; 37° C.): 2 days | cleavage to smallest fragments observed after ([5]; rt): 7 days
